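The compound was tested at five concentrations on cells cultured in 96-well plates, with a 48-hour exposure period. GI50: concentration for 50% inhibition of growth.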 The source made the active and inactive calls. Cut-off read from the data, not from the text of the source: active = GI50 up to about 1.1 µM and inactive = higher.
What was measured:
Test in all cases: DTP human tumour cell line panel, 48 h
ACHN = tested on: ACHN
SN12C = tested on: SN12C
PC-3 = tested on: PC-3
SR = tested on: SR
HCT-116 = tested on: HCT-116
NCI-H522 = tested on: NCI-H522
CCRF-CEM = tested on: CCRF-CEM
OVCAR-8 = tested on: OVCAR-8
NCI/ADR-RES = tested on: NCI/ADR-RES
UO-31 = tested on: UO-31
Hs-578T = tested on: Hs-578T
LOX IMVI = tested on: LOX IMVI
CAKI-1 = tested on: CAKI-1
A549 = tested on: A549
SF-295 = tested on: SF-295
SK-MEL-2 = tested on: SK-MEL-2
MDA-MB-435 = tested on: MDA-MB-435
HOP-62 = tested on: HOP-62
COLO 205 = tested on: COLO 205
BT-549 = tested on: BT-549

Row | SMILES | GI50 (ACHN) | GI50 (SN12C) | GI50 (PC-3) | GI50 (SR) | GI50 (HCT-116) | GI50 (NCI-H522) | GI50 (CCRF-CEM) | GI50 (OVCAR-8) | GI50 (NCI/ADR-RES) | GI50 (UO-31) | GI50 (Hs-578T) | GI50 (LOX IMVI) | GI50 (CAKI-1) | GI50 (A549) | GI50 (SF-295) | GI50 (SK-MEL-2) | GI50 (MDA-MB-435) | GI50 (HOP-62) | GI50 (COLO 205) | GI50 (BT-549)
1 | C#CC(O)/C=C/C(O)CCCC(O)CC#CC(O)C#CC(O)CCCC(O)/C=C/CCCCCC(=O)CCCCCCCCCCCCCC(O)C(O)C#CC(=O)O (stereo unspecified) | > 50 µM (inactive) | > 50 µM (inactive) | > 50 µM (inactive) | 13.1 µM (inactive) | > 50 µM (inactive) | 8.89 µM (inactive) | 14.3 µM (inactive) | > 50 µM (inactive) | > 50 µM (inactive) | > 50 µM (inactive) | 12.2 µM (inactive) | 12.8 µM (inactive) | > 50 µM (inactive) | > 50 µM (inactive) | > 50 µM (inactive) | 15 µM (inactive) | > 50 µM (inactive) | > 50 µM (inactive) | > 50 µM (inactive) | –
2 | C=C(OC1C(C)=C2C(C1OC(=O)CCCCCCC)C(C)(OC(C)=O)CC(OC(=O)CCC)C1(O)C2OC(=O)C1(C)O)/C(C)=C/C (stereo unspecified) | 0.000585 µM (active) | 0.0125 µM (active) | < 0.0001 µM (active) | 0.000145 µM (active) | – | 0.0125 µM (active) | 0.0141 µM (active) | 0.0125 µM (active) | 0.478 µM (active) | 0.115 µM (active) | – | 0.0125 µM (active) | 0.0125 µM (active) | 0.0125 µM (active) | 0.0125 µM (active) | 0.0125 µM (active) | < 0.0001 µM (active) | – | – | –
3 | CCOc1ccc(/C=C2/C(=O)N/C(=N\C(C)=O)N2C)cc1 | > 100 µM (inactive) | > 100 µM (inactive) | – | – | > 100 µM (inactive) | – | – | > 100 µM (inactive) | > 100 µM (inactive) | > 100 µM (inactive) | – | > 100 µM (inactive) | > 100 µM (inactive) | > 100 µM (inactive) | > 100 µM (inactive) | > 100 µM (inactive) | > 100 µM (inactive) | 96.6 µM (inactive) | > 100 µM (inactive) | > 100 µM (inactive)
4 | C(=N/Nc1ccc(-c2nc3ccccc3[nH]2)cc1)/c1c(-c2ccccc2)[nH]c2ccccc12 | 0.575 µM (active) | – | 0.311 µM (active) | 0.12 µM (active) | 0.424 µM (active) | 0.34 µM (active) | 0.443 µM (active) | 0.698 µM (active) | 0.286 µM (active) | 0.405 µM (active) | 0.267 µM (active) | 0.759 µM (active) | 0.53 µM (active) | – | 0.294 µM (active) | 0.199 µM (active) | 0.0471 µM (active) | 0.319 µM (active) | – | –
5 | O=C(O)c1ccccc1/C=C1\Cc2cc3c(cc2C1=O)CCC3 | 34.4 µM (inactive) | 20.4 µM (inactive) | – | 4.72 µM (inactive) | 27.9 µM (inactive) | 18.9 µM (inactive) | 18.8 µM (inactive) | 26.3 µM (inactive) | 17.3 µM (inactive) | 33.9 µM (inactive) | – | 14.9 µM (inactive) | – | 30.1 µM (inactive) | 24 µM (inactive) | 23.4 µM (inactive) | 12.7 µM (inactive) | 25.3 µM (inactive) | 21.9 µM (inactive) | 56.9 µM (inactive)
6 | N=C(N)C1=C(O)NC(=O)N(C2CCCCC2)C1 | > 100 µM (inactive) | > 100 µM (inactive) | – | > 100 µM (inactive) | > 100 µM (inactive) | > 100 µM (inactive) | > 100 µM (inactive) | > 100 µM (inactive) | – | > 100 µM (inactive) | – | > 100 µM (inactive) | > 100 µM (inactive) | > 100 µM (inactive) | > 100 µM (inactive) | > 100 µM (inactive) | – | > 100 µM (inactive) | > 100 µM (inactive) | –
7 | COC(C/C(=C/CO[Si](C(C)C)(C(C)C)C(C)C)C(=O)N(COCC[Si](C)(C)C)c1ccccc1I)OC | 20.6 µM (inactive) | 71 µM (inactive) | 28.4 µM (inactive) | > 100 µM (inactive) | 13.2 µM (inactive) | – | 22.7 µM (inactive) | 89.5 µM (inactive) | > 100 µM (inactive) | 55.3 µM (inactive) | 48.2 µM (inactive) | 14.7 µM (inactive) | > 100 µM (inactive) | 37.2 µM (inactive) | 4.58 µM (inactive) | 14.9 µM (inactive) | 5.53 µM (inactive) | 50.9 µM (inactive) | 57.7 µM (inactive) | –
8 | CC1(C)OCC(C2OC(OC(=O)c3ccc(C(F)(F)F)cc3)C3OC(C)(C)OC23)O1 (stereo unspecified) | > 77.4 µM (inactive) | > 77.4 µM (inactive) | > 77.4 µM (inactive) | 23.4 µM (inactive) | > 77.4 µM (inactive) | > 77.4 µM (inactive) | 28.2 µM (inactive) | > 77.4 µM (inactive) | 62.1 µM (inactive) | 19 µM (inactive) | – | > 77.4 µM (inactive) | > 77.4 µM (inactive) | > 77.4 µM (inactive) | > 77.4 µM (inactive) | > 77.4 µM (inactive) | > 77.4 µM (inactive) | 39.9 µM (inactive) | > 77.4 µM (inactive) | > 77.4 µM (inactive)
9 | COc1cc2c(cc1OCCCOc1cc(-c3ccc(F)cc3)nc(C)n1)N=C[C@@H]1CCCN1C2=O | 16.1 µM (inactive) | 16.5 µM (inactive) | – | 10.4 µM (inactive) | 16.9 µM (inactive) | 14.6 µM (inactive) | 15.8 µM (inactive) | 24.5 µM (inactive) | – | 17.7 µM (inactive) | 24.7 µM (inactive) | 13.6 µM (inactive) | 17.5 µM (inactive) | 18.2 µM (inactive) | 16.4 µM (inactive) | 17.2 µM (inactive) | 15.2 µM (inactive) | – | 29.1 µM (inactive) | –
10 | CCOC(=O)Nc1[nH]cc(-c2ccccc2)c1C#N | > 100 µM (inactive) | > 100 µM (inactive) | > 100 µM (inactive) | > 100 µM (inactive) | > 100 µM (inactive) | > 100 µM (inactive) | > 100 µM (inactive) | > 100 µM (inactive) | > 100 µM (inactive) | > 100 µM (inactive) | > 100 µM (inactive) | > 100 µM (inactive) | – | > 100 µM (inactive) | > 100 µM (inactive) | > 100 µM (inactive) | > 100 µM (inactive) | > 100 µM (inactive) | > 100 µM (inactive) | –
11 | N#CCCC1(CCC#N)CCCCCCCCC(CCC#N)(CCC#N)C(=O)C1=O | > 100 µM (inactive) | > 100 µM (inactive) | > 100 µM (inactive) | > 100 µM (inactive) | > 100 µM (inactive) | 5.81 µM (inactive) | – | > 100 µM (inactive) | > 100 µM (inactive) | – | 91 µM (inactive) | > 100 µM (inactive) | > 100 µM (inactive) | > 100 µM (inactive) | > 100 µM (inactive) | > 100 µM (inactive) | > 100 µM (inactive) | > 100 µM (inactive) | > 100 µM (inactive) | –
12 | O=[N+]([O-])c1ccc(-c2noc(-c3ccccc3)c2C2=NCCN2)cc1 | > 100 µM (inactive) | > 100 µM (inactive) | – | 81.8 µM (inactive) | 30.1 µM (inactive) | 20.5 µM (inactive) | > 100 µM (inactive) | > 100 µM (inactive) | – | 24.9 µM (inactive) | – | 71 µM (inactive) | 40.3 µM (inactive) | > 100 µM (inactive) | 44.7 µM (inactive) | > 100 µM (inactive) | – | 29.9 µM (inactive) | 45.5 µM (inactive) | –
13 | O=C(Cc1cccs1)N[C@@H]1C(=O)N2C(C(=O)OC(c3ccccc3)c3ccccc3)=C(CO)CS[C@H]12 | 91.8 µM (inactive) | > 100 µM (inactive) | > 100 µM (inactive) | 47.4 µM (inactive) | > 100 µM (inactive) | 16.8 µM (inactive) | 20 µM (inactive) | > 100 µM (inactive) | 96.6 µM (inactive) | 17.9 µM (inactive) | – | > 100 µM (inactive) | > 100 µM (inactive) | > 100 µM (inactive) | > 100 µM (inactive) | > 100 µM (inactive) | 65.9 µM (inactive) | – | > 100 µM (inactive) | –
14 | COc1ccc2c(c1)CC[C@@H]1C2CC[C@]2(C)C(=O)N(CCN(C)C)C(=O)CC12 (stereo partly specified) | > 100 µM (inactive) | > 100 µM (inactive) | > 100 µM (inactive) | > 100 µM (inactive) | > 100 µM (inactive) | > 100 µM (inactive) | > 100 µM (inactive) | > 100 µM (inactive) | – | > 100 µM (inactive) | > 100 µM (inactive) | – | > 100 µM (inactive) | > 100 µM (inactive) | > 100 µM (inactive) | – | > 100 µM (inactive) | > 100 µM (inactive) | > 100 µM (inactive) | > 100 µM (inactive)
15 | N#CC(c1cc2c(cc1Br)OCO2)N1CCOCC1 (stereo unspecified) | 62.8 µM (inactive) | 56.2 µM (inactive) | 15.3 µM (inactive) | 4.82 µM (inactive) | 6.5 µM (inactive) | > 100 µM (inactive) | 7.26 µM (inactive) | > 100 µM (inactive) | 27.1 µM (inactive) | 71.4 µM (inactive) | 25.6 µM (inactive) | 24.5 µM (inactive) | > 100 µM (inactive) | > 100 µM (inactive) | 53 µM (inactive) | – | 4.05 µM (inactive) | 44 µM (inactive) | 64.9 µM (inactive) | –
16 | Cc1cccc2c(=O)c3cccc([C@@H](C)C(=O)O)c3oc12 | > 100 µM (inactive) | > 100 µM (inactive) | > 100 µM (inactive) | > 100 µM (inactive) | > 100 µM (inactive) | > 100 µM (inactive) | > 100 µM (inactive) | > 100 µM (inactive) | > 100 µM (inactive) | > 100 µM (inactive) | > 100 µM (inactive) | > 100 µM (inactive) | > 100 µM (inactive) | > 100 µM (inactive) | > 100 µM (inactive) | 80.7 µM (inactive) | > 100 µM (inactive) | > 100 µM (inactive) | > 100 µM (inactive) | –
